Where “and” joins values, the source holds several entries; their conditions need not be identical. Identical values can stand only once.
Assay: Pharmacokinetic evaluation, plasma and brain concentrations
Type: in vivo, ICR mice
Description: Distribution of a medicament in the body is one of the important indicators to determine the dose and efficacy of the medicament. Thus, excellent candidate compounds should have good pharmacokinetic characteristics. In addition, since the compound of the present invention is intended to be used for the treatment of Alzheimer's disease, which is a disease of the central nervous system, the distribution pattern of the compound in the brain and the blood is also one of the subjects to be investigated. In this experiment, compound 50561 was administered to mice […] or by gavage, and the concentrations of the compound in blood and brain were measured at specific time points to determine the pharmacokinetic parameters.
Forty-eight male ICR mice purchased from Shanghai Sippr-BK Lab. Animal Co. Ltd were used in this experiment. The oral group was fasted for 10-14 hours before administration, and feeding was restored 4 hours after administration. Samples were collected from the intravenous administration group 0.083 h, 0.25 h, 0.5 h, 1 h, 2 h, 4 h, 8 h, and 24 h after administration, respectively: while for the oral administration group, about 0.5 mL of blood was collected from the heart 0.25 h, 0.5 h, 1 h, 2 h, 4 h, 6 h, 8 h, and 24 h after administration, respectively. Heparin sodium was used for anticoagulation. Blood samples were collected and placed on ice, and plasma was separated by centrifugation (centrifugation conditions: 8000 rpm, 6 minutes, 4C). The collected plasma was stored at −80° C. before analysis. After collecting plasma samples, brain tissues were collected, washed with normal saline, water-absorbed by filter paper, weighed immediately, and then placed in labeled tubes (one tube for one brain tissue). The samples to be tested were temporarily placed on ice before being stored in a −80° C. refrigerator.
The analysis methods of biological samples and the analysis of all samples were done by Medicilon Pharmaceutical Technology (Shanghai) Co., Ltd. The intraday accuracy evaluation of the quality control samples was carried out while analyzing the samples, and the accuracy of over 66.7% of the quality control samples was required to be between 80-120%.
When calculating the pharmacokinetic parameters, the BLQ before Cmax (including “No peak”) was calculated as 0; BLQ occurring after Cmax (including “No peak”) was not involved in the calculation. WinNonlin Professional V 5.2 (Pharsight, USA) was adopted to calculate the following pharmacokinetic parameters: AUC(0-t), AUC(0-∞), T1/2, MRT(0-∞), Cmax, and Tmax. The tissue/plasma ratio was to be calculated by the following formula based on the blood concentration data at different time points: Tissue/plasma ratio (mL/g)=tissue blood concentration/plasma blood concentration.

Q: Which “Brain/plasma ratio, Mean” value (IV 1 mg/kg, 0.083 hr) does the source give for `O=C1C=C(OCc2ccc(F)cc2)[C@H](Cc2ccccc2)N1` [Compound 50561] here?
A: The value was 2.499 mL/G.

Q: And the “Blood concentration, individual mice” value (IV 1 mg/kg, 0.083 hr, 1 mg/kg)?
A: Its value is 327.86 ng/mL and 145.16 ng/mL and 434.45 ng/mL.

Q: What about the “Brain tissue concentration, individual mice” value (“Brain tissue concentration” below) (IV 1 mg/kg, 0.083 hr, 1 mg/kg) of the same molecule?
A: The value was 853.63 ng/G and 383.96 ng/G.

Q: What about the “Brain/plasma ratio, individual mice” value (IV 1 mg/kg, 0.083 hr, 1 mg/kg) of the same molecule?
A: The value was 2.604 mL/G and 2.645 mL/G and 2.249 mL/G.

Q: And the “Brain/plasma ratio, Mean” value (IV 1 mg/kg, 0.25 hr)?
A: The value was 2.342 mL/G.

Q: And the “Blood concentration, individual mice” value (IV 1 mg/kg, 0.25 hr, 1 mg/kg)?
A: Its value is 180.29 ng/mL and 215.73 ng/mL.

Q: What about the “Brain tissue concentration” value (IV 1 mg/kg, 0.25 hr, 1 mg/kg) of the same molecule?
A: The value was 435.34 ng/G and 465.70 ng/G.

Q: What about the “Brain/plasma ratio, individual mice” value (IV 1 mg/kg, 0.25 hr, 1 mg/kg) of the same molecule?
A: The value was 2.451 mL/G and 2.415 mL/G and 2.159 mL/G.

Q: And the “Brain/plasma ratio, Mean” value (IV 1 mg/kg, 0.5 hr)?
A: The value was 2.488 mL/G.

Q: And the “Blood concentration, individual mice” value (IV 1 mg/kg, 0.5 hr, 1 mg/kg)?
A: Its value is 98.13 ng/mL and 89.73 ng/mL.

Q: What about the “Brain tissue concentration” value (IV 1 mg/kg, 0.5 hr, 1 mg/kg) of the same molecule?
A: Its value is 251.60 ng/G and 211.84 ng/G.

Q: What about the “Brain/plasma ratio, individual mice” value (IV 1 mg/kg, 0.5 hr, 1 mg/kg) of the same molecule?
A: Its value is 2.540 mL/G and 2.564 mL/G and 2.361 mL/G.

Q: And the “Brain/plasma ratio, Mean” value (IV 1 mg/kg, 1 hr)?
A: The value was 3.007 mL/G.

Q: And the “Blood concentration, individual mice” value (IV 1 mg/kg, 1 hr, 1 mg/kg)?
A: Its value is 18.27 ng/mL and 8.99 ng/mL and 18.70 ng/mL.

Q: And the “Brain tissue concentration” value (IV 1 mg/kg, 1 hr, 1 mg/kg)?
A: Its value is 35.43 ng/G and 51.45 ng/G.

Q: And the “Brain/plasma ratio, individual mice” value (IV 1 mg/kg, 1 hr, 1 mg/kg)?
A: Its value is 2.330 mL/G and 3.941 mL/G and 2.751 mL/G.

Q: What about the “Blood concentration, individual mice” value (IV 1 mg/kg, 2 hr) of the same molecule?
A: The value was “BLQ”.

Q: And the “Brain tissue concentration” value (IV 1 mg/kg, 2 hr)?
A: Its value is “BLQ”.

Q: What about the “Blood concentration, individual mice” value (IV 1 mg/kg, 4 hr) of the same molecule?
A: Its value is “BLQ”.

Q: And the “Brain tissue concentration” value (IV 1 mg/kg, 4 hr)?
A: The value was “BLQ”.

Q: And the “Blood concentration, individual mice” value (IV 1 mg/kg, 8 hr)?
A: Its value is “BLQ”.

Q: What about the “Brain tissue concentration” value (IV 1 mg/kg, 8 hr) of the same molecule?
A: The value was “BLQ”.

Q: What about the “Blood concentration, individual mice” value (IV 1 mg/kg, 24 hr) of the same molecule?
A: The value was “BLQ”.

Q: What about the “Brain tissue concentration” value (IV 1 mg/kg, 24 hr) of the same molecule?
A: Its value is “BLQ”.

Q: And the “Brain/plasma ratio, Mean” value (PO 10 mg/kg, 0.25 hr)?
A: Its value is 1.877 mL/G.

Q: And the “Blood concentration, individual mice” value (PO 10 mg/kg, 0.25 hr, 10 mg/kg)?
A: Its value is 655.31 ng/mL and 548.11 ng/mL.

Q: What about the “Brain tissue concentration” value (PO 10 mg/kg, 0.25 hr, 10 mg/kg) of the same molecule?
A: The value was 1042.09 ng/G and 1147.13 ng/G.

Q: What about the “Brain/plasma ratio, individual mice” value (PO 10 mg/kg, 0.25 hr, 10 mg/kg) of the same molecule?
A: The value was 1.948 mL/G and 1.590 mL/G and 2.093 mL/G.

Q: What about the “Brain/plasma ratio, Mean” value (PO 10 mg/kg, 0.5 hr) of the same molecule?
A: Its value is 2.147 mL/G.

Q: What about the “Blood concentration, individual mice” value (PO 10 mg/kg, 0.5 hr, 10 mg/kg) of the same molecule?
A: The value was 631.98 ng/mL and 529.57 ng/mL.

Q: And the “Brain tissue concentration” value (PO 10 mg/kg, 0.5 hr, 10 mg/kg)?
A: Its value is 2484.73 ng/G and 1280.85 ng/G and 1048.58 ng/G.

Q: And the “Brain/plasma ratio, individual mice” value (PO 10 mg/kg, 0.5 hr, 10 mg/kg)?
A: The value was 2.435 mL/G and 2.027 mL/G and 1.980 mL/G.

Q: What about the “Brain/plasma ratio, Mean” value (PO 10 mg/kg, 1 hr) of the same molecule?
A: The value was 2.265 mL/G.

Q: And the “Blood concentration, individual mice” value (PO 10 mg/kg, 1 hr, 10 mg/kg)?
A: The value was 599.81 ng/mL and 532.80 ng/mL.

Q: And the “Brain tissue concentration” value (PO 10 mg/kg, 1 hr, 10 mg/kg)?
A: The value was 1290.84 ng/G and 1149.69 ng/G.

Q: What about the “Brain/plasma ratio, individual mice” value (PO 10 mg/kg, 1 hr, 10 mg/kg) of the same molecule?
A: The value was 2.485 mL/G and 2.152 mL/G and 2.158 mL/G.

Q: And the “Brain/plasma ratio, Mean” value (PO 10 mg/kg, 2 hr)?
A: The value was 2.329 mL/G.

Q: And the “Blood concentration, individual mice” value (PO 10 mg/kg, 2 hr, 10 mg/kg)?
A: The value was 128.34 ng/mL and 83.99 ng/mL and 219.54 ng/mL.

Q: And the “Brain tissue concentration” value (PO 10 mg/kg, 2 hr, 10 mg/kg)?
A: Its value is 277.53 ng/G and 206.08 ng/G and 520.70 ng/G.

Q: What about the “Brain/plasma ratio, individual mice” value (PO 10 mg/kg, 2 hr, 10 mg/kg) of the same molecule?
A: Its value is 2.163 mL/G and 2.454 mL/G and 2.372 mL/G.

Q: And the “Brain/plasma ratio, Mean” value (PO 10 mg/kg, 4 hr)?
A: The value was 2.052 mL/G.

Q: What about the “Blood concentration, individual mice” value (PO 10 mg/kg, 4 hr, 10 mg/kg) of the same molecule?
A: The value was 27.74 ng/mL and 18.40 ng/mL and 10.71 ng/mL.

Q: And the “Brain tissue concentration” value (PO 10 mg/kg, 4 hr, 10 mg/kg)?
A: Its value is 65.84 ng/G and 44.67 ng/G and 14.52 ng/G.

Q: And the “Brain/plasma ratio, individual mice” value (PO 10 mg/kg, 4 hr, 10 mg/kg)?
A: The value was 2.373 mL/G and 2.428 mL/G and 1.355 mL/G.

Q: What about the “Brain/plasma ratio, Mean” value (PO 10 mg/kg, 6 hr) of the same molecule?
A: Its value is 2.511 mL/G.

— patent US11130733B2, “4-OXO-alkylated tetramic acid compound, preparation method and use thereof” (BEIJING JOEKAI BIOTECH. LLC, priority 2017, dated 2021)
